# Results published in ChEMBL document CHEMBL4393720, “Design, synthesis and biological evaluation of bromophenol-thiazolylhydrazone hybrids inhibiting the interaction of translation initiation factors eIF4E/eIF4G as multifunctional agents for cancer treatment” (Eur J Med Chem, 2019).
# Activity calls are given as the source filed them. The calls are words filed in the database; no cut-off is given here.
# Key:
# [1] = Cmax in male Sprague-Dawley rat at 2 mg/kg, iv measured up to 24 hrs by LC/MS-MS analysis; format: ADME, organism-based; set-up: dose 2 mg/kg, route intravenous; conditions: in vivo
# [2] = Subacute toxicity in SPF Kunming mouse assessed as behavioural abnormalities at 2000 mg/kg, po administered once a day for 14 days; format: organism-based; conditions: in vivo, 336 h
# [3] = Acute toxicity in SPF Kunming mouse assessed as body weight at 1000 mg/kg, po administered as single dose measured at day 14 (reference value: 34.7g); format: organism-based; conditions: in vivo
# [4] = Cmax in female Sprague-Dawley rat at 2 mg/kg, iv measured up to 24 hrs by LC/MS-MS analysis; format: ADME, organism-based; set-up: dose 2 mg/kg, route intravenous; conditions: in vivo
# U-87 MG = assay: Antiproliferative activity against human U87MG cells assessed as inhibition of cell growth incubated for 48 hrs by MTT assay; format: functional, cell-based, U-87MG ATCC
# A549 [5] = assay: In vivo inhibition of eIF4E in human A549 cells xenografted in athymic nude mouse assessed as decrease in phosphorylation of eIF4E at 25 to 50 mg/kg, ip administered once daily for 21 days by Western blot analysis; format: functional, organism-based
# A549 [6] = assay: In vivo inhibition of PI3K/Akt/mTOR in human A549 cells xenografted in athymic nude mouse assessed as decrease in phosphorylation of 4EBP1 at 25 to 50 mg/kg, ip administered once daily for 21 days by immunocytochemistry; format: functional, organism-based
# HUVEC = assay: Antiproliferative activity against human HUVEC cells assessed as inhibition of cell growth incubated for 48 hrs by MTT assay; format: cell-based
# [7] = Subacute toxicity in SPF Kunming mouse assessed as kidney morphological changes at 2000 mg/kg, po administered once a day for 14 days by H and E staining based microscopic analysis; format: organism-based; conditions: in vivo, 336 h
# [8] = Subacute toxicity in SPF Kunming mouse assessed as mortality at 2000 mg/kg, po administered once a day for 14 days; format: organism-based; conditions: in vivo, 336 h
# [9] = Subacute toxicity in SPF Kunming mouse assessed as body weight at 2000 mg/kg, po administered once a day for 14 days (reference value: 32g); format: organism-based; conditions: in vivo, 336 h
# [10] = Acute toxicity in SPF Kunming mouse assessed as body weight at 2000 mg/kg, po administered as single dose measured at day 7 (reference value: 30.2g); format: organism-based; conditions: in vivo
# [11] = Half life in male Sprague-Dawley rat at 2 mg/kg, iv measured up to 24 hrs by LC/MS-MS analysis; format: ADME, organism-based; conditions: in vivo
# [12] = Inhibition of PI3K/AKT/mTOR in human A549 cells assessed as decrease in 4EBP1 phosphorylation at 1 to 5 uM incubated for 48 hrs by western blot analysis; format: cell-based
# [13] = molecular target: Eukaryotic translation initiation factor 4E (Homo sapiens) (UniProt P06730); assay: Inhibition of eIF4E phosphorylation in human A549 cells incubated for 48 hrs by immunofluorescence method; format: cell-based
# Chain of Eukaryotic translation initiation factor 4E (Homo sapiens) (P06730 whole entry): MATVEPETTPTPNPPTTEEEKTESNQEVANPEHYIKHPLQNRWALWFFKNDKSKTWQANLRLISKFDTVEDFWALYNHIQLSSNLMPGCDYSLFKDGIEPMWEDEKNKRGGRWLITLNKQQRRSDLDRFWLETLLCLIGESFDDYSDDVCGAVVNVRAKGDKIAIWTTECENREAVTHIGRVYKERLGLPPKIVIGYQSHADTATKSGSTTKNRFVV
# [14] = Cmax in female Sprague-Dawley rat at 10 mg/kg, po measured up to 24 hrs by LC/MS-MS analysis; format: ADME, organism-based; set-up: dose 10 mg/kg, route oral; conditions: in vivo
# A549 [15] = assay: Induction of ROS generation in human A549 cells at 1 to 5 uM incubated for 48 hrs by DCFH-DA staining based FACS analysis; format: functional, cell-based
# A549 [16] = assay: Induction of apoptosis in human A549 cells assessed as increase in Bax level at 1 to 5 uM incubated for 48 hrs by Western blot analysis; format: functional, cell-based
# [17] = Subacute toxicity in SPF Kunming mouse assessed as liver morphological changes at 2000 mg/kg, po administered once a day for 14 days by H and E staining based microscopic analysis; format: organism-based; conditions: in vivo, 336 h
# [18] = Inhibition of PI3K/Akt/mTOR signalling pathway in human A549 cells assessed as reduction in mTOR phosphorylation at 1 to 5 uM incubated for 48 hrs by Western blot analysis; format: cell-based
# A549 [19] = assay: In vivo inhibition of PI3K/Akt/mTOR signalling pathway in human A549 cells xenografted in athymic nude mouse assessed as decrease in phosphorylation of Akt at 25 to 50 mg/kg, ip administered once daily for 21 days by Western blot analysis; format: functional, organism-based
# [20] = Total plasma clearance in female Sprague-Dawley rat at 2 mg/kg, iv measured up to 24 hrs by LC/MS-MS analysis; format: ADME, organism-based
# [21] = molecular target: Eukaryotic translation initiation factor 4E (Homo sapiens) (UniProt P06730); assay: Inhibition of eIF4E phosphorylation in human A549 cells assessed as decrease in c-myc expression at 1 to 5 uM incubated for 48 hrs by western blot analysis; format: cell-based
# [22] = MRT in male Sprague-Dawley rat at 2 mg/kg, iv measured up to 24 hrs by LC/MS-MS analysis; format: ADME, organism-based; conditions: in vivo
# [23] = Acute toxicity in SPF Kunming mouse assessed as body weight at 2000 mg/kg, po administered as single dose measured at day 14 (reference value: 34.7g); format: organism-based; conditions: in vivo
# A549 [24] = assay: Antitumor activity against human A549 cells xenografted in athymic nude mouse assessed as decrease in tumor growth at 25 mg/kg, ip administered once daily for 21 days; format: functional; conditions: 504 h
# A549 [25] = assay: Inhibition of eIF4E/eIF4G interaction in human A549 cells incubated for 48 hrs by m7GTP pull down assay; format: cell-based
# [26] = Total plasma clearance in male Sprague-Dawley rat at 2 mg/kg, iv measured up to 24 hrs by LC/MS-MS analysis; format: ADME, organism-based
# [27] = Inhibition of PI3K/Akt/mTOR signalling pathway in human A549 cells assessed as reduction in Akt phosphorylation at 1 to 5 uM incubated for 48 hrs by Western blot analysis; format: cell-based
# [28] = Toxicity in athymic nude mouse xenografted with human A549 cells assessed as effect on lung morphological changes at 25 to 50 mg/kg, ip administered once daily for 21 days by H and E staining based assay; format: organism-based; conditions: in vivo, 504 h
# A549 [29] = assay: Antitumor activity against human A549 cells xenografted in athymic nude mouse assessed as necrosis of tumor cells and loosely packed cells at 25 to 50 mg/kg, ip administered once daily for 21 days by hematoxylin and eosin staining based microscopic analysis; format: functional, organism-based
# [30] = Toxicity in athymic nude mouse xenografted with human A549 cells assessed as effect on heart morphological changes at 25 to 50 mg/kg, ip administered once daily for 21 days by H and E staining based assay; format: organism-based; conditions: in vivo, 504 h
# [31] = Toxicity in athymic nude mouse xenografted with human A549 cells assessed as effect on liver morphological changes at 25 to 50 mg/kg, ip administered once daily for 21 days by H and E staining based assay; format: organism-based; conditions: in vivo, 504 h
# [32] = molecular target: Eukaryotic translation initiation factor 4E (Homo sapiens) (UniProt P06730); assay: Inhibition of eIF4E phosphorylation in human A549 cells assessed as decrease in cyclin D1 level at 1 to 5 uM incubated for 48 hrs by western blot analysis; format: cell-based
# [33] = Cmax in male Sprague-Dawley rat at 10 mg/kg, po measured up to 24 hrs by LC/MS-MS analysis; format: ADME, organism-based; set-up: dose 10 mg/kg, route oral; conditions: in vivo
# [34] = Oral bioavailability in male Sprague-Dawley rat at 10 mg/kg measured up to 24 hrs by LC/MS-MS analysis; format: ADME, organism-based; conditions: in vivo
# [35] = Half life in female Sprague-Dawley rat at 2 mg/kg, iv measured up to 24 hrs by LC/MS-MS analysis; format: ADME, organism-based; conditions: in vivo
smiles,measurement,setting,value
Fc1ccc(/C=N/Nc2nc(-c3ccc(C(F)(F)F)cc3)cs2)cc1F,Cmax,[1],149 µM
same,Activity,[2],Non-Toxic
same,Activity,[3],34.9 g
same,Cmax,[4],126 µM
same,IC50,U-87 MG,29.9 µM
same,inhibition,A549 [5],Active
same,inhibition,A549 [6],Active
same,IC50,HUVEC,79.5 µM
same,Activity,[7],Non-Toxic
same,Activity,[8],Non-Toxic
same,Activity,[9],30.7 g
same,Activity,[10],29.9 g
same,half-life,[11],2.83 h
same,inhibition,[12],Active
same,inhibition,[13],Active
same,Cmax,[14],0.96 µM
same,Activity,A549 [15],Active
same,Activity,A549 [16],Active
same,Activity,[17],Non-Toxic
same,inhibition,[18],Active
same,inhibition,A549 [19],Active
same,clearance,[20],0.667 mL/min/kg
same,inhibition,[21],Active
same,MRT,[22],4.42 h
same,Activity,[23],35 g
same,inhibition in vivo at 25 mg/kg,A549 [24],62%
same,inhibition,A549 [25],Active
same,clearance,[26],0.5 mL/min/kg
same,inhibition,[27],Active
same,Activity,[28],Non-Toxic
same,Activity,A549 [29],Active
same,Activity,[30],Non-Toxic
same,Activity,[31],Non-Toxic
same,inhibition,[32],Active
same,Cmax,[33],0.65 µM
same,bioavailability,[34],17.2%
same,half-life,[35],3.25 h
